Laboratory results taken from patent US20240165243A1, “EGFR DEGRADERS AND METHODS OF USE” (BeiGene Switzerland GmbH, priority 2021, published 2024).

System: EGFR (Del19/T790M/C797S)
Assay: Cell degradation HTRF assay, H1975-clone #28 cells
Format: cell-based
Settings: H1975-clone #28 (Del19/T790M/C797S) cells, 16 h treatment; for DC50: HTRF, read-out: H1975-clone#28 DTC DC50; for H1975-clone#28 DTC Dmax (%): maximum percentage of degradation
Protocol: Cell Degradation of Example 124-189
H1975-#28 and H1975-#25 cells are treated with compounds diluted in 0.2% DMSO cell culture medium on day 2, incubate for 16 h, 37° C., 5% CO2. the final concentration of compounds in all assay is start with 10 uM, 5-fold dilution, total 8 doses were included.
After 16 h treatment, add HTRF lysis buffer to each well; seal the plate and incubate 1 hour at room temperature on a plate shaker; Once the cells are lysed, 16 μL of cell lysate are transferred to a PE 384-well HTRF detection plate; 4 μL of pre-mixed HTRF antibodies are added to each well; Cover the plate with a plate sealer, spin 1000 rpm for 1 min, Incubate overnight at room temperature; Read on BMG PheraStar with HTRF protocol (337 nm-665 nm-620 nm).
The inhibition (degradation) percentage of the compound was calculated by the following equation:
Inhibition percentage of Compound=100−100×(Signal−low control)/(High control−low control), wherein signal=each test compound group.
High control=Cell group with added DMSO and without compound, indicating microplate readings without EGFR degradation;
Dmax is the maximum percentage of inhibition (degradation).
The IC50 (DC50) value of a compound can be obtained by fitting the following equation
Y=Bottom+(TOP−Bottom)/(1+((IC50/X)^hillslope))
Wherein, X and Y are known values, and IC50, Hillslope, Top and Bottom are the parameters obtained by fitting with software. Y is the inhibition percentage (calculated from the equation), X is the concentration of the compound; IC50 is the concentration of the compound when the 50% inhibition is reached. The smaller the IC50 value is, the stronger the inhibitory ability of the compound is. Vice versa, the higher the IC50 value is, the weaker the ability the inhibitory ability of the compound is; Hillslope represents the slope of the fitted curve, generally around 1*; Bottom represents the minimum value of the curve obtained by data fitting, which is generally 0%±20%; Top represents the maximum value of the curve obtained by data fitting, which is generally 100%±20%. The experimental data were fitted by calculating and analyzing with Dotmatics data analysis software. When Dmax<50%, DC50 will be automatically assigned as larger than […].

Structure (SMILES) | DC50 [nM] | H1975-clone#28 DTC Dmax (%)
CCc1cc(Nc2ncc(Br)c(Nc3cnc4ccccc4c3P(C)(C)=O)n2)c(OC)cc1N1CCC(N2CCN(CCc3ccc(F)c4c3oc(=O)n4[C@H]3CCC(=O)NC3=O)CC2)CC1 [Example 126, (S)-3-(7-(2-(4-(1-(4-((5-bromo-4-((4-(dimethylphosphoryl)quinolin-3-yl)amino)pyrimidin-2-yl)amino)-2-ethyl-5-methoxyphenyl)piperidin-4-yl)piperazin-1-yl)ethyl)-4-fluoro-2-oxobenzo[d]oxazol-3(2H)-yl)piperidine-2,6-dione] | 1.3 | 84
CCc1cc(Nc2ncc(Br)c(Nc3cnc4ccccc4c3P(C)(C)=O)n2)c(OC)cc1N1CCC(N2CCN(CCc3ccc(F)c4c3n(C)c(=O)n4C3CCC(=O)NC3=O)CC2)CC1 (stereo not shown) [Example 130, 3-(4-(2-(4-(1-(4-((5-bromo-4-((4-(dimethylphosphoryl)quinolin-3-yl)amino)pyrimidin-2-yl)amino)-2-ethyl-5-methoxyphenyl)piperidin-4-yl)piperazin-1-yl)ethyl)-7-fluoro-3-methyl-2-oxo-2,3-dihydro-1H-benzo[d]imidazol-1-yl)piperidine-2,6-dione] | 1 | 86
CCc1cc(Nc2ncc(Br)c(Nc3cnc4ccccc4c3P(C)(C)=O)n2)c(OC)cc1N1CCC(N2CCN(CCc3cccc4c3n(CC)c(=O)n4C3CCC(=O)NC3=O)CC2)CC1 (stereo not shown) [Example 135, 3-(4-(2-(4-(1-(4-((5-bromo-4-((4-(dimethylphosphoryl)quinolin-3-yl)amino)pyrimidin-2-yl)amino)-2-ethyl-5-methoxyphenyl)piperidin-4-yl)piperazin-1-yl)ethyl)-3-ethyl-2-oxo-2,3-dihydro-1H-benzo[d]imidazol-1-yl)piperidine-2,6-dione] | 0.9 | 83
CCOc1cc(N2CCC(N3CCN(CCc4cc(F)c(F)c5c4oc(=O)n5C4CCC(=O)NC4=O)CC3)CC2)c(CC)cc1Nc1ncc(Br)c(Nc2cnc3ccccc3c2P(C)(C)=O)n1 (stereo not shown) [Example 136, 3-(7-(2-(4-(1-(4-((5-bromo-4-((4-(dimethylphosphoryl)quinolin-3-yl)amino)pyrimidin-2-yl)amino)-5-ethoxy-2-ethylphenyl)piperidin-4-yl)piperazin-1-yl)ethyl)-4,5-difluoro-2-oxobenzo[d]oxazol-3(2H)-yl)piperidine-2,6-dione] | 0.6 | 81
CCOc1cc(N2CCC(N3CCN(CCc4c(F)ccc5c4n(C)c(=O)n5C4CCC(=O)NC4=O)CC3)CC2)c(CC)cc1Nc1ncc(Br)c(Nc2cnc3ccccc3c2P(C)(C)=O)n1 (stereo not shown) [Example 137, 3-(4-(2-(4-(1-(4-((5-bromo-4-((4-(dimethylphosphoryl)quinolin-3-yl)amino)pyrimidin-2-yl)amino)-5-ethoxy-2-ethylphenyl)piperidin-4-yl)piperazin-1-yl)ethyl)-5-fluoro-3-methyl-2-oxo-2,3-dihydro-1H-benzo[d]imidazol-1-yl) piperidine-2,6-dione] | 2.1 | 86
CCOc1cc(N2CCC(N3CCN(CCc4cccc5c4C(C)(C)C(=O)N5C4CCC(=O)NC4=O)CC3)CC2)c(CC)cc1Nc1ncc(Br)c(Nc2cnc3ccccc3c2P(C)(C)=O)n1 (stereo not shown) [Example 138, 3-(4-(2-(4-(1-(4-((5-bromo-4-((4-(dimethylphosphoryl)quinolin-3-yl)amino)pyrimidin-2-yl)amino)-5-ethoxy-2-ethylphenyl)piperidin-4-yl)piperazin-1-yl)ethyl)-3,3-dimethyl-2-oxoindolin-1-yl)piperidine-2,6-dione] | 3 | 83
CCOc1cc(N2CCC(N3CCN(CCc4ccc5c(c4)oc(=O)n5C4CCC(=O)NC4=O)CC3)CC2)c(CC)cc1Nc1ncc(Br)c(Nc2cnc3ccccc3c2P(C)(C)=O)n1 (stereo not shown) [Example 139, 3-(6-(2-(4-(1-(4-((5-bromo-4-((4-(dimethylphosphoryl)quinolin-3-yl)amino)pyrimidin-2-yl)amino)-5-ethoxy-2-ethylphenyl)piperidin-4-yl)piperazin-1-yl)ethyl)-2-oxobenzo[d]oxazol-3(2H)-yl)piperidine-2,6-dione] | 1.5 | 75
CCOc1cc(N2CCC(N3CCN(CCc4cccc5c4n(C)c(=O)n5C4CCC(=O)NC4=O)CC3)CC2)c(CC)cc1Nc1ncc(Br)c(Nc2cnc3ccccc3c2P(C)(C)=O)n1 (stereo not shown) [Example 140, 3-(4-(2-(4-(1-(4-((5-bromo-4-((4-(dimethylphosphoryl)quinolin-3-yl)amino)pyrimidin-2-yl)amino)-5-ethoxy-2-ethylphenyl)piperidin-4-yl)piperazin-1-yl)ethyl)-3-methyl-2-oxo-2,3-dihydro-1H-benzo[d]imidazol-1-yl)piperidine-2,6-dione] | 4.4 | 84
CCc1cc(Nc2ncc(Br)c(Nc3cnc4ccccc4c3P(C)(C)=O)n2)c(OC)cc1N1CCC(N2CCN(CCc3ccc4c(oc(=O)n4C4CCC(=O)NC4=O)c3F)CC2)CC1 (stereo not shown) [Example 142, 3-(6-(2-(4-(1-(4-((5-bromo-4-((4-(dimethylphosphoryl)quinolin-3-yl)amino)pyrimidin-2-yl)amino)-2-ethyl-5-methoxyphenyl)piperidin-4-yl)piperazin-1-yl)ethyl)-7-fluoro-2-oxobenzo[d]oxazol-3(2H)-yl)piperidine-2,6-dione] | 0.9 | 81

The next lines start with results.

DC50 [nM] | Structure (SMILES) | H1975-clone#28 DTC Dmax (%)
1 | CCc1cc(Nc2ncc(Br)c(Nc3cnc4ccccc4c3P(C)(C)=O)n2)c(OC)cc1N1CCC(N2CCN(CCc3ccc4c(c3)oc(=O)n4C3CCC(=O)NC3=O)CC2)CC1 (stereo not shown) [Example 132, 3-(6-(2-(4-(1-(4-((5-bromo-4-((4-(dimethylphosphoryl)quinolin-3-yl)amino)pyrimidin-2-yl)amino)-2-ethyl-5-methoxyphenyl)piperidin-4-yl)piperazin-1-yl)ethyl)-2-oxobenzo[d]oxazol-3(2H)-yl)piperidine-2,6-dione] | 80
3 | CCOc1cc(N2CCC(N3CCN(CCc4ccc5c(c4)oc(=O)n5C4CCC(=O)NC4=O)CC3)CC2)c(CC)cc1Nc1ncc(Br)c(Nc2cnc3cc(F)ccc3c2P(C)(C)=O)n1 (stereo not shown) [Example 133, 3-(6-(2-(4-(1-(4-((5-bromo-4-((4-(dimethylphosphoryl)-7-fluoroquinolin-3-yl)amino)pyrimidin-2-yl)amino)-5-ethoxy-2-ethylphenyl)piperidin-4-yl)piperazin-1-yl)ethyl)-2-oxobenzo[d]oxazol-3(2H)-yl)piperidine-2,6-dione] | 71
0.8 | CCc1cc(Nc2ncc(Br)c(Nc3cnc4cc(F)ccc4c3P(C)(C)=O)n2)c(OC)cc1N1CCC(N2CCN(CCc3ccc4c(c3)oc(=O)n4C3CCC(=O)NC3=O)CC2)CC1 (stereo not shown) [Example 134, 3-(6-(2-(4-(1-(4-((5-bromo-4-((4-(dimethylphosphoryl)-7-fluoroquinolin-3-yl)amino)pyrimidin-2-yl)amino)-2-ethyl-5-methoxyphenyl)piperidin-4-yl)piperazin-1-yl)ethyl)-2-oxobenzo[d]oxazol-3(2H)-yl)piperidine-2,6-dione] | 79
1.3 | CCOc1cc(N2CCC(N3CCN(CCc4ccc5c(c4)oc(=O)n5C4CCC(=O)NC4=O)CC3)CC2)c(CC)cc1Nc1ncc(Br)c(Nc2cnc3cc(F)ccc3c2P(C)(C)=O)n1 (stereo not shown) [Example 149, 3-(6-(2-(4-(1-(4-((5-bromo-4-((4-(dimethylphosphoryl)-7-fluoroquinolin-3-yl)amino)pyrimidin-2-yl)amino)-5-ethoxy-2-ethylphenyl)piperidin-4-yl)piperazin-1-yl)ethyl)-2-oxobenzo[d]oxazol-3(2H)-yl)piperidine-2,6-dione] | 73
1.1 | CCc1cc(Nc2ncc(Br)c(Nc3cnc4cc(F)ccc4c3P(C)(C)=O)n2)c(OC)cc1N1CCC(N2CCN(CCc3cc(F)c4c(c3)oc(=O)n4[C@H]3CCC(=O)NC3=O)CC2)CC1 [Example 151, (S)-3-(6-(2-(4-(1-(4-((5-bromo-4-((4-(dimethylphosphoryl)-7-fluoroquinolin-3-yl)amino)pyrimidin-2-yl)amino)-2-ethyl-5-methoxyphenyl)piperidin-4-yl)piperazin-1-yl)ethyl)-4-fluoro-2-oxobenzo[d]oxazol-3(2H)-yl)piperidine-2,6-dione] | 79
